{
  "source": "paper PMC8333053",
  "about": "“Synthesis and biological screening of new thiadiazolopyrimidine-based polycyclic compounds” (Scientific Reports, 2021)",
  "key": {"Bacillus cereus UW85": {"system": "Bacillus cereus UW85", "experiment": "Antibacterial MIC, two-fold serial dilution", "assay_type": "cell-based", "conditions": "Gram +ve bacteria, LB broth, 37°C, 24 h, visual (no turbidity), read-out: MIC B. cereus", "procedure": "(§1) The antimicrobial activity of the synthesized thiadiazolopyrimidine compounds was studied toward diverse pathogenic strains, such as gram-positive bacteria (Staphylococcus aureus ATCC 29213 and Bacillus cereus UW85), gram-negative bacteria (Escherichia coli ATCC 12435 and Pseudomonas aeruginosa ATCC 29260), and fungi (Candida albicans and Aspergillus fumigatus 293). The assessment was performed through the two-fold dilution technique using Ampicillin (antibacterial) and Fluconazole (antifungal) as the reference drugs[28],[29]. The minimal inhibitory concentration (MICs, µg/mL) of the synthesized derivatives for prohibiting microbial growth was determined through the visual detection (no turbidity) technique.\n(§2) The synthesized thiadiazolopyrimidine-based compounds were evaluated and adopted for antibacterial and antifungal effectiveness using the approved procedure[38],[39].\n(§3) Minimal inhibitory concentrations (MICs) were determined by serial dilution technique using 96-multiwell microtiter plates. The investigated compounds were dissolved in DMSO 100% to prepare stock solutions of 5000 µg/mL. Two-fold serial dilutions of the dissolved compounds were performed in LB broth providing eight different concentrations (1250, 625, 312.5, 156, 78, 39, 19.5 µg/mL). Overnight cultures of microorganisms were diluted to 1 ×10^6 CFU/mL in LB broth, and 20 mL of the diluted cultures were added to the test solutions (50 mL) in the wells (one well per concentration per bacterial strain). The plates were incubated at 37°C for 24 h. MIC was detected visually as the least concentration inhibiting bacterial growth (no turbidity) and the activity of the tested compounds was estimated in comparison to ampicillin."}, "[1]": {"system": "Escherichia coli ATCC 12435", "experiment": "Antibacterial MIC, two-fold serial dilution", "assay_type": "cell-based", "conditions": "ATCC12435, Gram −ve bacteria, LB broth, 37°C, 24 h, visual (no turbidity)", "procedure": "as §1, §2, §3"}, "[2]": {"system": "Pseudomonas aeruginosa ATCC 29260", "experiment": "Antibacterial MIC, two-fold serial dilution", "assay_type": "cell-based", "conditions": "ATCC29260, Gram −ve bacteria, LB broth, 37°C, 24 h, visual (no turbidity), read-out: MIC P. aeruginosa", "procedure": "as §1, §2, §3"}, "[3]": {"system": "Staphylococcus aureus ATCC 29213", "experiment": "Antibacterial MIC, two-fold serial dilution", "assay_type": "cell-based", "conditions": "ATCC29213, Gram +ve bacteria, LB broth, 37°C, 24 h, visual (no turbidity), read-out: MIC S. aureus", "procedure": "as §1, §2, §3"}, "DNA": {"system": "DNA", "experiment": "Bleomycin-dependent DNA damage", "assay_type": "biochemical", "conditions": "test sample 0.1 mg/mL, λ = 532 nm; mean of three replicates ± SD; ascorbic acid 0.24 mM", "text": "Bleomycin-dependent DNA damage. The prepared polycyclic thiadiazolopyrimidine-based compounds were examined through the bleomycin-dependant DNA damage, and the results were compared to that of ascorbic acid as a positive control. The obtained data reflected the ability of these derivatives to protect the DNA from damage. The capability of compounds 16a–b and 17a–b to manifest the best protective effect against DNA damage was indicated by the corresponding absorbance values ranging from 0.031 to 0.053 (Table 4)[35],[36].\nBleomycin-dependent DNA damage experiment: To a mixture of 0.5 mg / mL of DNA, 5 mM magnesium chloride, 50 mM ferric chloride and 0.05 mg / mL bleomycin sulfate was prepared. The test sample was prepared at a concentration of 0.1 mg / mL and added to the mixture. After incubation of the mixture for one hour at 37 °C, 0.05 mL of EDTA (0.1 M) was added to terminate the reaction. In the next step, 0.5 mL of TBA (1% w / v) and 0.5 mL of HCl (25% v / v) were added for colour development and the mixture was heated for 10 minutes at 80 °C. The mixture was centrifuged and the absorbance expressed, the amount of damage to the DNA was measured at λ = 532 nm. L-Ascorbic acid (0.24 mM) was used as a positive control."}, "[4]": {"system": "Chromobacterium violaceum (ATCC 12472)", "experiment": "Antiquorum-sensing assay (violacein pigment inhibition)", "assay_type": "cell-based", "conditions": "5 mg/mL, 50 µL per well, 30°C, 48 h; QS inhibition = r2 − r1", "text": "The synthesized thiadiazolopyrimidine-based compounds were screened for their antiquorum-sensing (anti-QS) inhibition activity by the Chromobacterium violaceum (ATCC 12472) technique using catechin as the standard compound[28]–[30]. The QS technique of C. violaceum was remarked by the detection of violacein (violet pigment)[31],[32]. Meanwhile, the reactivity of the synthesized thiadiazolopyrimidine-containing derivatives as drugs depends on their efficiency to inhibit the liberation of violacein during the QS technique. The QS inhibition was determined by the following equation: QS inhibition (mm) = (r2 − r1), where r1 is the inhibition radius of the bacterial growth and r2 is the inhibition radius for growth as well as the release of the pigment.\nThe anti-QS inefficiency was evaluated using the previous technique mentioned in the literature.\nThe culture was prepared by growing Ch. violaceum ATCC 12472 in LB broth and incubated for 16–18 h in an orbital incubator running at 28°C and 150 rpm. The culture was then adjusted to 0.5 McFarland standard (ca. 1 × 10^6 CFU/mL). Ch. violaceum (50 µL) was inoculated into LB agar (50 mL), poured into plates, and solidified. Wells were made in LB agar medium using cork borer. The tested compounds were dissolved in DMSO 100% in Eppendorf tubes for final concentration of 5 mg/mL, and 50 µL of the test solution was applied into the wells. The positive control (catechin) was also added at the same concentration and volume to each plate. In addition, DMSO (control solvent) was added to each plate. […] Bacterial growth inhibition by the tested compounds was measured as radius (r1) in mm, while both growth and pigment inhibition was measured as radius (r2) in mm. The pigment inhibition (QS inhibition) was determined by subtracting bacterial growth inhibition (r1) from the total radius (r2); thus, QS inhibition = (r2 - r1) in mm."}, "Hep-2": {"system": "Hep-2", "experiment": "MTT cytotoxicity assay", "assay_type": "cell-based", "conditions": "Homo sapiens, HEp-2, 72 h, 3 days", "procedure": "(§4) The cytotoxicity of the prepared tri-and tetra-cyclic thiadiazolopyrimidine compounds were examined toward various cancer cell lines, such as liver and breast cancer (MCF-7), prostate cancer (PC3), laryngeal carcinoma (Hep-2), carcinoma (HepG2), and standard normal fibroblast cells (WI38) using the MTT assay[33] at the National Research Centre (Egypt). The cytotoxicity (Table 3) toward 50% inhibition of the cell viability (IC50 values) was assessed using 5-fluorouracil (5-Fu) as the standard anticancer drug.\n(§5) The synthesized compounds were subjected to the MTT cytotoxicity assay on the basis of the cited literature.\n(§6) MTT cytotoxicity assay: The technical method of MTT assay depends on the reduction of yellow 3-(4,5-methyl-2-thiazolyl)-2,5-diphenyl-2H-tetrazolium bromide (MTT) into purple formazan product, mainly by mitochondrial reductase activity inside the living cells. The cells used in cytotoxicity assay were cultured in RPMI 1640 medium supplemented with 10% fetal calf serum. Cells suspended in the medium (2×10^4 cells/mL) were plated in 96-well culture plates and incubated at 37 °C in a 5% CO2 incubator for 12 hours. The tested sample (2 μL) was added to the cells (2×10^4) in 96-well plates and cultured at 37 °C for 3 days. The cultured cells were mixed with 20 μL of MTT solution and incubated for 4 hours at 37 °C. The supernatant was carefully removed from each well, the formazan crystals were dissolved after addition of DMSO (100 μL) for each well to form the cellular reduction of MTT. After mixing with a mechanical plate mixer, the absorbance of each well was measured by a microplate reader using a test wavelength of 570 nm. The results were expressed as the IC50 values, which inducing 50% inhibition of cell growth of the treated cells when compared to the growth of control cells."}, "HepG2": {"system": "HepG2", "experiment": "MTT cytotoxicity assay", "assay_type": "cell-based", "conditions": "Homo sapiens, HepG2, 72 h, 3 days", "procedure": "as §4, §5, §6"}, "MCF-7": {"system": "MCF-7", "experiment": "MTT cytotoxicity assay", "assay_type": "cell-based", "conditions": "Homo sapiens, MCF7, 72 h, 3 days", "procedure": "as §4, §5, §6"}, "PC3": {"system": "PC3", "experiment": "MTT cytotoxicity assay", "assay_type": "cell-based", "conditions": "Homo sapiens, PC-3, 72 h, 3 days", "procedure": "as §4, §5, §6"}, "[5]": {"experiment": "MTT cytotoxicity assay on normal cells", "assay_type": "cell-based", "conditions": "human, WI38 normal fibroblast cells", "procedure": "as §4, §5, §6"}, "[6]": {"system": "Aspergillus fumigatus 293", "experiment": "Antifungal MIC, two-fold serial dilution", "assay_type": "cell-based", "conditions": "Fungi, glucose minimal medium, 30°C, 48 h, visual (no turbidity)", "procedure": "as §1, §2\n(§7) Minimal inhibitory concentrations (MICs) were determined by serial dilution technique using 96-multiwell microtiter plates. The investigated compounds were dissolved in DMSO 100% to prepare stock solutions of 5000 µg/mL. Two-fold serial dilutions of the dissolved compounds were performed in glucose minimal medium providing eight different concentrations (1250, 625, 312.5, 156, 78, 39, 19.5 µg/mL). The microorganisms were diluted to 1 ×10^3 SFU/mL in glucose minimal medium, and 20 µL of the diluted culture was added to the test solutions (50 µL) in the wells (one well per concentration). The plates were incubated at 30°C for 48 h. MIC was detected visually as the least concentration inhibiting fungal growth (no turbidity) and the activity of the tested compounds was estimated in comparison to fluconazole."}, "Candida albicans": {"system": "Candida albicans", "experiment": "Antifungal MIC, two-fold serial dilution", "assay_type": "cell-based", "conditions": "Fungi, glucose minimal medium, 30°C, 48 h, visual (no turbidity)", "procedure": "as §1, §2, §7"}},
  "data": [
    {"compound": "CC1(C)S[C@@H]2[C@H](NC(=O)[C@H](N)c3ccccc3)C(=O)N2[C@H]1C(=O)O", "note": "[Ampicillin, reference compound]", "values": [
      {"measurement": "MIC", "setting": "Bacillus cereus UW85", "result": 1250, "unit": "µg/mL"},
      {"measurement": "MIC", "setting": "[1]", "result": 19.5, "unit": "µg/mL"},
      {"measurement": "MIC", "setting": "[2]", "result": 78, "unit": "µg/mL"},
      {"measurement": "MIC", "setting": "[3]", "result": "> 1250", "unit": "µg/mL"}
    ]},
    {"compound": "O=C1O[C@H]([C@@H](O)CO)C(O)=C1O", "note": "[Ascorbic acid, L-Ascorbic acid, reference compound]", "values": [
      {"measurement": "Absorbance (bleomycin-dependent DNA damage)", "setting": "DNA", "result": "0.060 ± 0.02"}
    ]},
    {"compound": "O.Oc1cc(O)c2c(c1)O[C@H](c1ccc(O)c(O)c1)[C@@H](O)C2", "note": "[Catechin, catechin, reference compound]", "values": [
      {"measurement": "Diameter of quorum-sensing inhibition C. violaceum", "setting": "[4]", "result": 2, "unit": "mm"}
    ]},
    {"compound": "O=c1[nH]cc(F)c(=O)[nH]1", "note": "[Compound 5-Fu, 5-Fluorouracil, reference compound]", "values": [
      {"measurement": "IC50", "setting": "Hep-2", "result": "5.35 ± 0.23", "unit": "µM"},
      {"measurement": "IC50", "setting": "HepG2", "result": "7.2 ± 0.45", "unit": "µM"},
      {"measurement": "IC50", "setting": "MCF-7", "result": "5.58 ± 0.31", "unit": "µM"},
      {"measurement": "IC50", "setting": "PC3", "result": "8.78 ± 0.6", "unit": "µM"},
      {"measurement": "IC50 at 3 days", "setting": "[5]", "result": "10.3 ± 0.62", "unit": "µM"}
    ]},
    {"compound": "OC(Cn1cncn1)(Cn1cncn1)c1ccc(F)cc1F", "note": "[Fluconazole, reference compound]", "values": [
      {"measurement": "MIC", "setting": "[6]", "result": "> 1250", "unit": "µg/mL"},
      {"measurement": "MIC", "setting": "Candida albicans", "result": "> 1250", "unit": "µg/mL"}
    ]}
  ]
}
